Results on five compounds are retold here after patent US20250034139A1, “AMINE COMPOUNDS HAVING ANTI-INFLAMMATORY, ANTIFUNGAL, ANTIPARASITIC, AND ANTICANCER ACTIVITY” (PHARMA CINQ, LLC, priority 2013, published 2025).

Molecules are shown by their SMILES. Converted amounts (≈) assume the structure as drawn.

Experiment [1] has as its system PC3 human prostate cancer cells. Put plainly: Example S: in vitro anticancer screen, PC-3 cells, Wst1. The experiment is classed as cell-based. To be noted: Homo sapiens, PC-3; 0.4 μM, approximately 20 hours, Wst1; read-out: PC-3, percent of cancer cell survival relative to vehicle treated cells. The method, boiled down: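 Values give percent survival relative to vehicle, read by Wst1 absorbance (450/630 nm) after 2 h dye incubation, in triplicate. Cells were seeded at 2×10^4/well and treated about 20 h with compound at 0.4, 0.5 or 2.5 μM, depending on compound.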

Experiment [2] has as its system 4T1 murine breast cancer cells. Description: Example S: in vitro anticancer screen, 4T1 cells, Wst1. The experiment is classed as cell-based, mouse. To be noted: Mus musculus, 4T1, 18 h, 18 hr, Wst1; for viability at 1 µM: read-out: 4T1 1 μM, percent of cancer cell survival relative to vehicle treated cells; for viability at 5 µM: read-out: 4T1 5 μM, percent of cancer cell survival relative to vehicle treated cells. The gist of the method:
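Read-out is Wst1 absorbance (450 nm, reference 630 nm) after roughly 2 hr dye incubation, giving percent cell survival versus vehicle. Before that, compounds at 1 μM or 5 μM were applied for 18 hr to 4T1 cells plated at 1×10^4 per well.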

The subject of the next experiment is S. cerevisiae. Put plainly: Example I: Saccharomyces cerevisiae growth inhibition (OD 600 nm). The experiment is classed as cell-based. To be noted: Saccharomyces cerevisiae, 18 hour incubation at 30° C., OD 600 nm, XLfit; for IC50: read-out: IC50, uM (50% inhibition of fungal growth); for MIC: read-out: MIC, uM (99% of inhibition of fungal growth). The protocol:
An overnight culture of S. cerevisiae was dilution in YPD broth to concentration of 40,000/ml and 150 μl/well was plated in 96 well plates. Compounds were then added to each well with concentration ranged from 4 to 50 μM as final concentration. The plates were inoculated at 30° C. overnight with shaking at 220 rpm and absorbance at 600 nm was read after 18 hour incubation.
• 1. One days prior to the inoculum preparation, pick a single colony of S. cerevisiae from the Sabouraud Dextrose Agar plate using the inoculum loop and inoculate into a 50 mL tube containing 10 ml of YPD growth medium • 2. Incubate at 30° C. with shaking at 220 rpm for 24 hours with loosen lid to allow air in and facilitates growth. • 3. Examine an aliquot of the culture under a microscope for yeast cell morphology and lack of bacterial contamination. • 4. Dilute the overnight culture with YPD medium at 1:30 dilution (70 ul to 2.1 ml) and count the number of cells as 4,230,000/ml. • 5. Mix 620 μl of 1:30 dilution and 64.4 ml YPD to make final concentration of 40,000/ml cells • 6. Plated 144 μl/well in four 96-well plates.
• 1. From 10 mM DMSO stock solutions, make serial dilutions of compounds to 0.1, 0.2, 0.3, 0.63 and 1.25 mM solutions • 2. Add 6 μl each of diluted compound solutions per well in duplicates. The final concentrations were 0, 4, 8, 12, 25 and 50 micromolar. • 3. Incubated all plates at 30 C for overnight (˜18 hours) with 220 rpm shaking. • 4. Read absorbance at OD600 for each plate on Spectra Max Plus plate reader. • 5. Calculate the % inhibition of each compound against the DMSO treated cell and plotted.

The next experiment deals with Trichophyton rubrum. Put plainly: Example J: Trichophyton rubrum growth inhibition, scoring by eye. Format: cell-based. To be noted: Trichophyton rubrum, 144 h; 6 days at 30° C., tested 6 to 40 μM; read-out: MIC, μM (maximum inhibition concentration, scoring by eye). The protocol:
Trichophyton grown on two agar plates were collected by scraping into 10 ml saline and filtered through 8 μm filters. […] This experiment included some active compounds from previous experiment and added several untested compounds. […] Following table listed the maximum inhibition concentration (MIC) based on scoring by eye. Scrape frozen Trichophyton culture from ATCC vial and suspended in 100 μl PDB, and then plate on a PDA plate. Incubate plate at 30 C for 4 days. The plate was covered almost full. […] Take OD of collected solution at 520 nm and 600 nm: […] Part-II: […] Add 6 μl each of diluted compound solutions per well in triplicates. […] Wrap the plates with […] incubate all plates at 30° C. for 6 days. • Take picture of the plates on KODAK imager with 17 captures of 1.5 sec/capture for total of 25.5 second exposure.

The subject of experiment [3] is PC-3 prostate cancer cells. Description: Example T: sensitisation of PC-3 cells to doxorubicin, oxaliplatin, paclitaxel or vincristine, Wst1. The experiment is classed as cell-based, human. To be noted: PC-3 cells, 72 hours; for viability at 0.4 µM: Homo sapiens, compound 0.4 μM alone, Wst1, vehicle = 100, read-out: No Chemo: percent cell survival; for Doxorubicin 3.5 μM: percent cell survival: compound 0.4 μM + doxorubicin 3.5 μM; for Doxorubicin 3.5 μM: percent cell survival / Oxaliplatin 100 μM: percent cell survival / Paclitaxel 50 μM: percent cell survival / Vincristine 100 nM: percent cell survival: chemotherapy agent alone normalized to 100%; for Oxaliplatin 100 μM: percent cell survival: compound 0.4 μM + oxaliplatin 100 μM; for Paclitaxel 50 μM: percent cell survival: compound 0.4 μM + paclitaxel 50 μM; for Vincristine 100 nM: percent cell survival: compound 0.4 μM + vincristine 100 nM.

The subject of another experiment is THP-1 cells. Put plainly: Example D: LPS-triggered THP-1 cell death assay, acute/5-hour and chronic/48-hour. The experiment is classed as cell-based, Human. To be noted: for Viable cell percent change, Chronic/48-hour, Mean: 10 ng/ml LPS, 0.1 μM test compound. How it is done:
Compounds of the invention were tested at 0.1 μM versus AC in the LPS-triggered THP-1 cell death assay. Both acute/5-hour and chronic/48-hour phases of cell death were assessed. Compounds were screened in batches with DMSO as the negative control and AC as the high activity control.

Experiment [4] deals with Candida albicans strain 3153. Put plainly: Example H: Candida albicans growth inhibition (OD 600 nm). Format: cell-based. Particulars: for MIC: Candida albicans, 3153, 24 hrs at 30° C., YPD, XLfit, read-out: MIC (uM) (99% of inhibition of fungal growth); for IC50: Candida albicans, 3153, read-out: IC50 (uM) (50% inhibition of fungal growth), 24 hrs at 30° C., YPD, XLfit. How it is done: A single colony of Candida Albicans was grown in 50 ml YPD broth overnight (19 hr). The cells were washed with PBS and 3.5×10^4 CFU/ml of C. Albicans (144 μl/well) in YPD medium were plated in 96 well plates. Test compounds were then added to each well with concentration ranged from 5 to 40 μM as final concentrations. The plates were incubated at 30° C. overnight (24 hrs) and OD at 600 nm was read at the end of incubation as an index of yeast cell density.
Part-I: Preparation of Candida albicans Cells • 1. One day prior to the inoculum preparation, pick a single colony of Candida albicans strain 3153 (lot #61794) from the Sabouraud Dextrose Agar plate using the inoculum loop and inoculate into a 250 mL flask containing 50 ml of YPD growth medium • 2. Incubate at 30° C. with shaking at 150 rpm for at least 18 hours with loosened lid to allow air in and facilitate growth. • 3. Examine an aliquot of the culture under a microscope for Candida cell morphology and lack of bacterial contamination; >95% of Candida cells should be blastoconidia. • 4. Transfer 25 ml the overnight culture into a 50-ml plastic disposable centrifuge tube, and centrifuge at 1000×g for 20 min. • 5. Discard the supernatant and wash the pellet with 4 ml of PBS at three times. Vortex and centrifuge, 1000×g for 10 min. • 6. After the third wash, dispense the pellet with 2 ml PBS and vortex. • 7. Make three 1:10 serial dilutions in sterile PBS (10^−1, 10^−2, 10^−3) from the 2 ml cell suspension using 15 ml culture tubes. The final volume in each tube is 5 ml. • 8. […] Make a 1:4 dilution in YPD medium from the 50-fold dilution of 10^−3 cell suspension for testing compounds. • The final C. albicans cell concentration for the test: 3.5×10^4 CFU/ml • 10. Plated 144 ul/well of the above dilution of cell on 96-well plates. Part-II: C. Albicans Growth Inhibition Testing with Compounds • 1. From 10 mM DMSO stock solutions, make serial dilutions of compounds to 0.13, 0.25, 0.40, 0.55, 0.75 and 1.0 mM solutions • 2. Add 6 ul each of diluted compound solutions per well in duplicates. The final concentrations were 0, 5, 10, 16, 22, 30 and 40 micromolar. • 3. Incubated all plates at 30 C for overnight (˜24 hours). • 4. Read absorbance at OD600 for each plate. • 5. Calculate the % inhibition of each compound against the DMSO treated cell.

As for `c1ccc(OCCCCCCCCNc2ccnc3ccccc23)cc1` [AN, N-(8-Phenoxyoctyl)quinolin-4-amine], the viability at 0.4 µM in experiment [1] stood at 75.9%. Also, in experiment [2], the viability at 1 µM is 26.6% and the viability at 5 µM was determined as 50.3%. Further, in the experiment on S. cerevisiae, the IC50 turned out to be 19.1 µM and the MIC turned out to be 24.3 µM (≈ 8.45 µg/mL). Also, the MIC in the experiment with Trichophyton rubrum is 18 µM (≈ 6.27 µg/mL). Moreover, in experiment [3], the viability at 0.4 µM amounted to 75.9%, the “Doxorubicin 3.5 μM: percent cell survival” value was 28.2%, the “Oxaliplatin 100 μM: percent cell survival” value was found to be 24.7% and the “Paclitaxel 50 μM: percent cell survival” value is 45.8%. The “Vincristine 100 nM: percent cell survival” value in experiment [3] amounted to 67.3%. Also, the “Viable cell percent change, Chronic/48-hour, Mean” value (“Viable cell percent change” below) with THP-1 cells is listed as 31.66%. Further, the “activity relative to AC in the LPS-triggered THP-1 cell death assay, in words” value in the experiment on THP-1 cells (0.1 μM, 5-hour and 48-hour time points) was “equivalent activity to AC at both the 5-hour and 48-hour time points”.

As to `CCCCCCc1ccc(Nc2ccnc3ccccc23)cc1` [AO, N-(4-Hexylphenyl)quinolin-4-amine], the viability at 0.4 µM in experiment [1] is 35%. Besides, in experiment [2], the viability at 1 µM was determined as 28.9% and the viability at 5 µM turned out to be 18.6%. In the experiment with Trichophyton rubrum, the MIC is greater than 40 µM. Moreover, in experiment [3], the viability at 0.4 µM turned out to be 35%, the “Doxorubicin 3.5 μM: percent cell survival” value is listed as 80.7%, the “Oxaliplatin 100 μM: percent cell survival” value is 91% and the “Paclitaxel 50 μM: percent cell survival” value was found to be 93.1%. The “Vincristine 100 nM: percent cell survival” value in experiment [3] came out at 91.1%. The “Viable cell percent change” value in the experiment on THP-1 cells worked out at 25.19%. For the same compound, in experiment [4], the MIC turned out to be 84.9 µM (≈ 25.9 µg/mL) and the IC50 came to 34.7 µM.

For `CCCCCCOC(=O)c1ccc(Nc2ccnc3ccccc23)cc1` [AP, Hexyl 4-(quinolin-4-ylamino)benzoate], in experiment [2], the viability at 1 µM turned out to be 110% and the viability at 5 µM was 246%. In addition, in the experiment with S. cerevisiae, the half-inhibitory concentration (IC50) turned out to be 26.3 µM and the MIC came out at 46.5 µM (≈ 16.2 µg/mL). The MIC in the experiment with Trichophyton rubrum is roughly 40 µM (≈ 13.9 µg/mL). In addition, in the experiment with THP-1 cells, the “Viable cell percent change” value amounted to 37.38%. In experiment [4], the MIC turned out to be 42 µM (≈ 14.6 µg/mL) and the IC50 came out at 25 µM.

On to `CCCCCCNC(=O)c1ccc(Nc2ccnc3ccccc23)cc1` [AQ, N-Hexyl-4-(quinolin-4-ylamino)benzamide], for which, in experiment [2], the viability at 1 µM came to 94.8% and the viability at 5 µM is 92.7%. The MIC with Trichophyton rubrum was greater than 40 µM. Further, the “Viable cell percent change” value in the experiment with THP-1 cells came to 24.71%. Moreover, in experiment [4], the IC50 is 41.2 µM.

Consider `CCCCCCOc1ccc(Nc2ccnc3ccccc23)c(F)c1` [BL, N-[2-Fluoro-4-(hexyloxy)phenyl]quinolin-4-amine], for which, in experiment [1], the viability at 0.4 µM amounted to 106%. The MIC with Trichophyton rubrum is greater than 40 µM. In addition, in experiment [3], the viability at 0.4 µM stood at 106%, the “Doxorubicin 3.5 μM: percent cell survival” value is reported as 135.5%, the “Oxaliplatin 100 μM: percent cell survival” value is on record as 120% and the “Paclitaxel 50 μM: percent cell survival” value was 141.4%. For the same compound, the “Vincristine 100 nM: percent cell survival” value in experiment [3] is recorded as 111.2%. Also, the “Viable cell percent change” value in the experiment with THP-1 cells is on record as 32.33%. Besides, in experiment [4], the MIC is 44.8 µM (≈ 15.2 µg/mL) and the IC50 turned out to be 33.5 µM.

For orientation: IC50 means the concentration that gives 50% inhibition.
